These results are taken from patent US12600741B2, “3-phenoxybenzoic acid-glucuronic acid conjugate, and preparation method and use thereof” (Shanxi Medical University, priority 2023, dated 2026).

The nature of the data set: In vitro liver microsome experiment (glucuronidation with UDPGA, UPLC-MS/MS detection). The class given is in vitro ADME. The conditions noted are these: pooled human liver microsomes, alamethicin, 37° C., incubation 0 min and 6 h. As to the method: In Vitro Liver Microsome Experiment
Experimental group: 136 μL of 50 mM Tris buffer was added to a 1.5 mL centrifuge tube, added with 20 μL of 100 mM aqueous D-glucaro-1,4-lactone solution, 10 μL of 10 mM aqueous magnesium chloride (MgCl2) solution, 10 μL of 40 mg/mL pooled human liver microsomes, and 2 μL of 50 mg/mL alamethicin, respectively, and preincubated on ice for 15 min; 2 μL of 2 mg/mL substrate (3-PBA) was added, and preincubated with 100 mM uridine diphosphate glucuronic acid (UDPGA) solution for 5 min at 37° C.; 20 μL of preincubated UDPGA solution was added to the reaction system to start the reaction, and incubation proceeded. At 0 min and 6 h, 200 μL of glacial acetonitrile was added to the reaction system to terminate the reaction, respectively. The reaction system was vortexed for 1 min and centrifuged at 13,000 r/min for 10 min at 4° C. All supernatants were put in a test tube, nitrogen-blown at 37° C., and reconstituted with 200 μL of methanol. The samples were analyzed and detected by UPLC-MS/MS. The difference between the blank group and the experimental group was only that 3-PBA was not added, and the difference between the control group and the experimental group was only that UDPGA was not added. […]
On the technique in general: Liver microsomes are a subcellular fraction often used to study metabolism.

Regarding `O=C(O)c1cccc(Oc2ccccc2)c1` [3-PBA, 3-phenoxybenzoic acid], the “phase II metabolism (formation of glucuronic acid conjugate) detected by UPLC-MS/MS” value is “underwent phase II metabolic reaction”.
The same measure for `CC1(C)Cc2cccc(O)c2O1` [carbofuran phenol]: “carbofuran phenol-glucuronic acid conjugate was detected”.
